The values below come from US20040002526A1, “Phospholipase D inhibitors and uses thereof” (Cell Therapeutics, Inc., priority 2002, published 2004).

The assay addresses T1, PLD (phospholipase D).
T1 construct: fused on or other part: N-terminal polyhistidine tag (pFastBac HTc) on either enzyme
Put plainly: In vitro assay of PLD activity ([3H]-choline release from labelled PC). In kind it is biochemical, human. As to conditions: PLD isoform not stated, read-out: IC50. The method, then:
Recombinant PLD1 and PLD2—Human PLD1 and PLD2 were isolated from Sf9 insect cells that had been infected with recombinant baculovirus vector, pFastBac™HTc vector (Life Technologies, Gaithersburg, Md.), containing PLD1 or PLD2 cDNAs.
PLD1 activity was assayed by measuring the generation of [^3H]-choline from [choline-methyl^3H](16:0, 16:0)PC.
The assay procedure for PLD2 was similar to that for PLD1, with the exception that arf1, PKC-α, and GTPγS were omitted from the reaction mixture. After addition of enzymes, the reactions were incubated for 1 hour at room temperature. Twenty microliters of 12% trichloroacetic acid (TCA) then were added to each sample, to stop the reaction and to precipitate the unreacted [choline-methyl^3H](16:0, 16:0)PC. Thereafter, the samples were passed through 0.65 μm Millipore 96 well filter plates to removed the excess [choline-methyl^3H](16:0, 16:0)PC. For each sample the filtrate (50 μl), which contained the [^3H]-choline released by PLD cleavage of PC, was analyzed using a TopCount™ Liquid Scintillation Counter, a product of Packard (Meriden, Conn.).

Setting [1] is: Table 1, monocyclic thiazolidinones of Formula I.
Setting [2] is: Table 2, bicyclic thiazolidinones of Formula II.

Each structure is given as a SMILES string. Where two headings read alike, the source gives them in different places.

Broadly, the IC50 is the concentration at which inhibition is half-maximal.

As for `O=C(O)c1ccc(-c2ccc(/C=C3\SC(=S)N(Cc4cccs4)C3=O)s2)cc1` [Compound 37, 4-[5-(4-oxo-3-thiophen-2-ylmethyl-2-thioxo-thiazolidin-5-ylidenemethyl)-thiophen-2-yl]-benzoic acid], the IC50 under setting [1] came out at 5 µM.
Same read-out and setting: the same measure for `Cc1ccc(CN2C(=O)/C(=C/c3ccc(-c4ccc(S(N)(=O)=O)cc4)o3)SC2=S)cc1` [Compound 38, 4-{5-[3-(4-methyl-benzyl)-4-oxo-2-thioxo-thiazolidin-5-ylidenemethyl]-furan-2-yl}-benzenesulfonamide]: 6 µM.
Still for that read-out and setting: the figure for `N#Cc1ccc(-c2ccc(/C=C3\SC(=S)N(Cc4cccnc4)C3=O)o2)cc1` [Compound 39, 4-[5-(4-oxo-3-pyridin-3-ylmethyl-2-thioxo-thiazolidin-5-ylidenemethyl)-furan-2-yl]-benzonitrile] is 4 µM.
Same read-out and setting: the same measure for `CN(C)c1ccc(/C=C/C=C2\SC(=S)N(c3ccc(C(=O)O)cc3)C2=O)cc1` [Compound 40, 4-{5-[3-(4-dimethylamino-phenyl)-allylidene]-4-oxo-2-thioxo-thiazolidin-3-yl}-benzoic acid]: 8 µM.
As to `O=C(O)c1ccc(N2C(=O)/C(=C/c3cc4ccccc4o3)SC2=S)cc1` [Compound 41, 4-(5-benzofuran-2-ylmethylene-4-oxo-2-thioxo-thiazolidin-3-yl)-benzoic acid], the IC50 under setting [1] was 2 µM.
For `CCOC(=O)C1=C(C)N=c2s/c(=C\c3ccc(-c4ccc(C(=O)O)cc4)o3)c(=O)n2C1c1ccc(OC)c(OC)c1` (centres unmarked) [Compound 42, 2-[5-(4-Carboxy-phenyl)-furan-2-ylmethylene]-5-(3,4-dimethoxy-phenyl)-7-methyl-3-oxo-2,3-dihydro-5H-thiazolo[3,2-a]pyrimidine-6-carboxylic acid ethyl ester], the IC50 under setting [2] amounted to 4.5 µM.
Same read-out and setting: the same measure for `CCOC(=O)C1=C(C)N=c2s/c(=C\c3ccc(-c4ccc(C(=O)O)cc4)o3)c(=O)n2C1c1ccc(N(C)C)cc1` (centres unmarked) [Compound 43, 2-[5-(4-Carboxy-phenyl)-furan-2-ylmethylene]-5-(4-dimethylamino-phenyl)-7-methyl-3-oxo-2,3-dihydro-5H-thiazolo[3,2-a]pyrimidine-6-carboxylic acid ethyl ester]: 2.7 µM.
The same measure, in the same setting: the figure for `CCOC(=O)C1=C(C)N=c2s/c(=C\c3ccc(-c4ccc(C(=O)O)cc4)o3)c(=O)n2C1c1ccc2c(c1)OCO2` (centres unmarked) [Compound 44, 5-Benzo[1,3]dioxol-5-yl-2-[5-(4-carboxy-phenyl)-furan-2-ylmethylene]-7-methyl-3-oxo-2,3-dihydro-5H-thiazolo[3,2-a]pyrimidine-6-carboxylic acid ethyl ester] is 2.3 µM.
The same measure, in the same setting: the figure for `CCOC(=O)C1=C(C)N=c2s/c(=C\c3ccc(-c4ccc(Cl)c(C(=O)O)c4)o3)c(=O)n2C1c1ccc(N(C)C)cc1` (centres unmarked) [Compound 45, 2-[5-(3-Carboxy-4-chloro-phenyl)-furan-2-ylmethylene]-5-(4-dimethylamino-phenyl)-7-methyl-3-oxo-2,3-dihydro-5H-thiazolo[3,2-a]pyrimidine-6-carboxylic acid ethyl ester] is 1.9 µM.
On to `CCOC(=O)C1=C(C)N=c2s/c(=C\c3ccc(-c4cccc(C(=O)O)c4)o3)c(=O)n2C1c1ccccc1` (centres unmarked) [Compound 46, 2-[5-(3-Carboxy-phenyl)-furan-2-ylmethylene]-7-methyl-3-oxo-5-phenyl-2,3-dihydro-5H-thiazolo[3,2-a]pyrimidine-6-carboxylic acid ethyl ester], for which, under setting [2], the IC50 came to 4.3 µM.
Same read-out and setting: the figure for `CCOC(=O)C1=C(C)N=c2s/c(=C\c3ccc(-c4cccc(C(=O)O)c4)o3)c(=O)n2C1c1ccc(OC)cc1` (centres unmarked) [Compound 47, 2-[5-(3-Carboxy-phenyl)-furan-2-ylmethylene]-5-(4-methoxy-phenyl)-7-methyl-3-oxo-2,3-dihydro-5H-thiazolo[3,2-a]pyrimidine-6-carboxylic acid ethyl ester] is 2 µM; for `CCOC(=O)C1=C(C)N=c2s/c(=C\c3ccc(-c4ccc(C(=O)O)cc4)o3)c(=O)n2C1c1ccc(C)cc1` (centres unmarked) [Compound 48] it is 3.5 µM.
The same measure, in the same setting: the figure for `CCOC(=O)C1=C(C)N=c2s/c(=C\c3ccc(-c4cccc(C(=O)O)c4)o3)c(=O)n2C1c1ccc(C)cc1` (centres unmarked) [Compound 49, 2-[5-(3-Carboxy-phenyl)-furan-2-ylmethylene]-7-methyl-3-oxo-5-p-tolyl-2,3-dihydro-5H-thiazolo[3,2-a]pyrimidine-6-carboxylic acid ethyl ester] is 2.8 µM; for `CCOC(=O)C1=C(C)N=c2s/c(=C\c3ccc(-c4ccc(C(=O)O)cc4)o3)c(=O)n2C1c1ccc(Cl)cc1` (centres unmarked) [Compound 50, 2-[5-(4-Carboxy-phenyl)-furan-2-ylmethylene]-5-(4-chloro-phenyl)-7-methyl-3-oxo-2,3-dihydro-5H-thiazolo[3,2-a]pyrimidine-6-carboxylic acid ethyl ester] it is 3.4 µM.
Still for that read-out and setting: the same measure for `CCOC(=O)C1=C(C)N=c2s/c(=C\c3ccc(-c4cccc(C(=O)O)c4)o3)c(=O)n2C1c1ccc2c(c1)OCO2` (centres unmarked) [Compound 51, 5-Benzo[1,3]dioxol-5-yl-2-[5-(3-carboxy-phenyl)-furan-2-ylmethylene]-7-methyl-3-oxo-2,3-dihydro-5H-thiazolo[3,2-a]pyrimidine-6-carboxylic acid ethyl ester]: 2.7 µM; for `CCOC(=O)C1=C(C)N=c2s/c(=C\c3ccc(-c4cccc(C(=O)O)c4)o3)c(=O)n2C1c1ccccc1Cl` (centres unmarked) [Compound 52, 2-[5-(3-Carboxy-phenyl)-furan-2-ylmethylene]-5-(2-chloro-phenyl)-7-methyl-3-oxo-2,3-dihydro-5H-thiazolo[3,2-a]pyrimidine-6-carboxylic acid ethyl ester]: 4 µM; for `CCOC(=O)C1=C(C)N=c2s/c(=C\c3ccc(-c4cccc(C(=O)O)c4)o3)c(=O)n2C1c1ccc(N(C)C)cc1` (centres unmarked) [Compound 55, 2-[5-(3-Carboxy-phenyl)-furan-2-ylmethylene]-5-(4-dimethylamino-phenyl)-7-methyl-3-oxo-2,3-dihydro-5H-thiazolo[3,2-a]pyrimidine-6-carboxylic acid ethyl ester]: 0.7 µM.
In the case of `CCOC(=O)C1=C(C)N=c2s/c(=C/c3ccc(-c4ccc(Cl)c(C(=O)O)c4)o3)c(=O)n2C1c1ccccc1OC` (centres unmarked) [Compound 56, 2-[5-(3-Carboxy-4-chloro-phenyl)-furan-2-ylmethylene]-5-(2-methoxy-phenyl)-7-methyl-3-oxo-2,3-dihydro-5H-thiazolo[3,2-a]pyrimidine-6-carboxylic acid ethyl ester], under setting [2], the IC50 was 2.6 µM.
For the compound `CCOC(=O)C1=C(C)N=c2s/c(=C\c3ccc(-c4ccc(C(=O)O)cc4)o3)c(=O)n2C1c1c(OC)ccc2ccccc12` (centres unmarked) [Compound 57, 2-[5-(4-Carboxy-phenyl)-furan-2-ylmethylene]-5-(2-methoxy-naphthalen-1-yl)-7-methyl-3-oxo-2,3-dihydro-5H-thiazolo[3,2-a]pyrimidine-6-carboxylic acid ethyl ester], the IC50 under setting [2] came to 3.7 µM.
Same read-out and setting: the same measure for `CCOC(=O)C1=C(C)N=c2s/c(=C\c3ccc(-c4ccccc4C(=O)O)o3)c(=O)n2C1c1ccc(SC)cc1` (centres unmarked) [Compound 58, 2-[5-(2-Carboxy-phenyl)-furan-2-ylmethylene]-7-methyl-5-(4-methylsulfanyl-phenyl)-3-oxo-2,3-dihydro-5H-thiazolo[3,2-a]pyrimidine-6-carboxylic acid ethyl ester]: 4 µM.
